Test system: not listed separately
Test: (§1) AUC in rat at 2 mg/kg, po
Format: ADME, organism-based, Plasma
Design: dose 2 mg/kg, route oral
Conditions: plasma

Structure (SMILES)	AUC
Cc1c(C(=O)c2ccc(Cl)cc2)c2ccc(OC(F)(F)F)cc2n1Cc1cccc(O[C@H](C)C(=O)O)c1	1.1 µM·h
CCC[C@@H](Oc1cccc(Cn2c(C)c(C(=O)c3ccc(Cl)cc3)c3ccc(OC(F)(F)F)cc32)c1)C(=O)O	1.7 µM·h

Test system: Rattus norvegicus
Test: as §1
Format: ADME, organism-based, Plasma
Design: dose 2 mg/kg, route oral
Conditions: in vivo

Structure (SMILES)	AUC
CC[C@@](C)(Oc1cccc(Cn2c(C)c(C(=O)c3ccc(Cl)cc3)c3ccc(OC(F)(F)F)cc32)c1)C(=O)O (stereo in doubt; 12j)	2.8 µM·h
CC[C@@](C)(Oc1cccc(Cn2c(C)c(C(=O)c3ccc(Cl)cc3)c3ccc(OC(F)(F)F)cc32)c1)C(=O)O (stereo in doubt; 12i)	1.3 µM·h

Molecular target: T1, Peroxisome proliferator-activated receptor alpha (Homo sapiens, UniProt Q07869)
T1 sequence (Q07869 whole entry): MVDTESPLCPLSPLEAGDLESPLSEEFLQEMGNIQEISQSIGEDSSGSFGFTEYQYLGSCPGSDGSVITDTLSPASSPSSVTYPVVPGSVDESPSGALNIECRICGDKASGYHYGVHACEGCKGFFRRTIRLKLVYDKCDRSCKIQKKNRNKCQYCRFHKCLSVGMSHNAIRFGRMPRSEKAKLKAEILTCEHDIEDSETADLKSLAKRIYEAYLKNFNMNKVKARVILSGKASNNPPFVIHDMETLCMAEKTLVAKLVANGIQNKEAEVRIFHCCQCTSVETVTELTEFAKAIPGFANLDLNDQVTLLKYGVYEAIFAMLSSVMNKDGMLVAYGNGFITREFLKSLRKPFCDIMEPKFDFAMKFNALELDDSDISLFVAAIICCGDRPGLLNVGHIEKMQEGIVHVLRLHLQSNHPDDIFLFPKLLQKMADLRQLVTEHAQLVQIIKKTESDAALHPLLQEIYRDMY
Test: Inhibition of human PPARalpha receptor by scintillation proximity assay
Conditions: not given

Structure (SMILES)	IC50
Cc1c(Cc2cccc(OCC(=O)O)c2)c2cc(OC(F)(F)F)ccc2n1C(=O)c1ccc(Cl)cc1	> 15000 nM
CC[C@H](Oc1cccc(Cn2c(C)c(C(=O)c3ccc(Cl)cc3)c3ccc(OC(F)(F)F)cc32)c1)C(=O)O	> 15000 nM
Cc1c(C(=O)c2ccc(Cl)cc2)c2ccc(OC(F)(F)F)cc2n1Cc1cccc(OCC(=O)O)c1	> 15000 nM
CC[C@@](C)(Oc1cccc(Cn2c(C)c(C(=O)c3ccc(Cl)cc3)c3ccc(OC(F)(F)F)cc32)c1)C(=O)O (stereo in doubt; 12j)	764 nM
CC[C@@](C)(Oc1cccc(Cn2c(C)c(C(=O)c3ccc(Cl)cc3)c3ccc(OC(F)(F)F)cc32)c1)C(=O)O (stereo in doubt; 12i)	87 nM
Cc1c(C(=O)c2ccc(Cl)cc2)c2ccc(OC(F)(F)F)cc2n1Cc1cccc(OC2(C(=O)O)CCC2)c1	1080 nM
Cc1c(C(=O)c2ccc(Cl)cc2)c2ccc(OC(F)(F)F)cc2n1Cc1cccc(O[C@H](C)C(=O)O)c1	> 15000 nM
CCC[C@@H](Oc1cccc(Cn2c(C)c(C(=O)c3ccc(Cl)cc3)c3ccc(OC(F)(F)F)cc32)c1)C(=O)O	> 15000 nM

Molecular target: T1, Peroxisome proliferator-activated receptor alpha
Format: functional, cell-based, COS-1
Conditions: not given

Structure (SMILES)	EC50
Cc1c(Cc2cccc(OCC(=O)O)c2)c2cc(OC(F)(F)F)ccc2n1C(=O)c1ccc(Cl)cc1	> 3000 nM
CC[C@H](Oc1cccc(Cn2c(C)c(C(=O)c3ccc(Cl)cc3)c3ccc(OC(F)(F)F)cc32)c1)C(=O)O	500 nM
Cc1c(C(=O)c2ccc(Cl)cc2)c2ccc(OC(F)(F)F)cc2n1Cc1cccc(OCC(=O)O)c1	> 3000 nM
CC[C@@](C)(Oc1cccc(Cn2c(C)c(C(=O)c3ccc(Cl)cc3)c3ccc(OC(F)(F)F)cc32)c1)C(=O)O (stereo in doubt; 12j)	129 nM
CC[C@@](C)(Oc1cccc(Cn2c(C)c(C(=O)c3ccc(Cl)cc3)c3ccc(OC(F)(F)F)cc32)c1)C(=O)O (stereo in doubt; 12i)	107 nM
Cc1c(C(=O)c2ccc(Cl)cc2)c2ccc(OC(F)(F)F)cc2n1Cc1cccc(OC2(C(=O)O)CCC2)c1	185 nM
Cc1c(C(=O)c2ccc(Cl)cc2)c2ccc(OC(F)(F)F)cc2n1Cc1cccc(O[C@H](C)C(=O)O)c1	320 nM
CCC[C@@H](Oc1cccc(Cn2c(C)c(C(=O)c3ccc(Cl)cc3)c3ccc(OC(F)(F)F)cc32)c1)C(=O)O	380 nM

Molecular target: T2, Peroxisome proliferator-activated receptor alpha (Mus musculus, UniProt P23204)
T2 sequence (P23204 whole entry): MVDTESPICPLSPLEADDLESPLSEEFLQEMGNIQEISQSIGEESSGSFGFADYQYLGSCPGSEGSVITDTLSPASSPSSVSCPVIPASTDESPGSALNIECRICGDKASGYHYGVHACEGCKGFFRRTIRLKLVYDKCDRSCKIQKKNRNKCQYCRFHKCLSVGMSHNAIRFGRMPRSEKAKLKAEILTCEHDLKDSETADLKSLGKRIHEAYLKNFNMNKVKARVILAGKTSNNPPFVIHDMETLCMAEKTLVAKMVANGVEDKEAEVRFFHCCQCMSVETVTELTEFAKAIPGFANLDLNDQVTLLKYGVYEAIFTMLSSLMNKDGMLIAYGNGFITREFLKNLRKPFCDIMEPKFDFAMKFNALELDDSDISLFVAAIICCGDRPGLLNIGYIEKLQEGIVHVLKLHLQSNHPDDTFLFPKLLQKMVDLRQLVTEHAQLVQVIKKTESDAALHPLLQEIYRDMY
Test: Agonist activity at mouse PPARalpha receptor expressed in african green monkey COS1 cells co-transfected with fused yeast Gal4-DBD by transactivation assay
Format: functional, cell-based, COS-1
Conditions: not given

Structure (SMILES)	EC50
Cc1c(Cc2cccc(OCC(=O)O)c2)c2cc(OC(F)(F)F)ccc2n1C(=O)c1ccc(Cl)cc1	> 3000 nM
CC[C@H](Oc1cccc(Cn2c(C)c(C(=O)c3ccc(Cl)cc3)c3ccc(OC(F)(F)F)cc32)c1)C(=O)O	> 3000 nM
Cc1c(C(=O)c2ccc(Cl)cc2)c2ccc(OC(F)(F)F)cc2n1Cc1cccc(OCC(=O)O)c1	350 nM
CC[C@@](C)(Oc1cccc(Cn2c(C)c(C(=O)c3ccc(Cl)cc3)c3ccc(OC(F)(F)F)cc32)c1)C(=O)O (stereo in doubt; 12j)	> 1000 nM
Cc1c(C(=O)c2ccc(Cl)cc2)c2ccc(OC(F)(F)F)cc2n1Cc1cccc(OC2(C(=O)O)CCC2)c1	150 nM
Cc1c(C(=O)c2ccc(Cl)cc2)c2ccc(OC(F)(F)F)cc2n1Cc1cccc(O[C@H](C)C(=O)O)c1	28 nM
CCC[C@@H](Oc1cccc(Cn2c(C)c(C(=O)c3ccc(Cl)cc3)c3ccc(OC(F)(F)F)cc32)c1)C(=O)O	110 nM

Same assay, conditions: cos-1

Structure (SMILES)	EC50
CC[C@@](C)(Oc1cccc(Cn2c(C)c(C(=O)c3ccc(Cl)cc3)c3ccc(OC(F)(F)F)cc32)c1)C(=O)O (stereo in doubt; 12i)	> 1000 nM

Test system: Mus musculus
Test: Antidiabetic activity in C57BLKS/J-m+/+Leprdb db/db mouse assessed as reduction in plasma glucose levels at 10 mg/kg, po once daily for 11 days relative to control
Format: functional
Design: scale not given: the % may be the effect or the level left
Conditions: not given

Structure (SMILES)	Activity
CC[C@H](Oc1cccc(Cn2c(C)c(C(=O)c3ccc(Cl)cc3)c3ccc(OC(F)(F)F)cc32)c1)C(=O)O	22%
Cc1c(C(=O)c2ccc(Cl)cc2)c2ccc(OC(F)(F)F)cc2n1Cc1cccc(O[C@H](C)C(=O)O)c1	105%
CCC[C@@H](Oc1cccc(Cn2c(C)c(C(=O)c3ccc(Cl)cc3)c3ccc(OC(F)(F)F)cc32)c1)C(=O)O	94%

Same assay, conditions: 10 mg/kg

Structure (SMILES)	Activity
CC[C@@](C)(Oc1cccc(Cn2c(C)c(C(=O)c3ccc(Cl)cc3)c3ccc(OC(F)(F)F)cc32)c1)C(=O)O (stereo in doubt; 12j)	45%
CC[C@@](C)(Oc1cccc(Cn2c(C)c(C(=O)c3ccc(Cl)cc3)c3ccc(OC(F)(F)F)cc32)c1)C(=O)O (stereo in doubt; 12i)	71%

Test system: Mus musculus
Test: Antidiabetic activity in C57BLKS/J-m+/+Leprdb db/db mouse assessed as reduction in plasma triglyceride levels at 10 mg/kg, po once daily for 11 days relative to control
Format: functional
Design: scale not given: the % may be the effect or the level left
Conditions: not given

Structure (SMILES)	Activity
CC[C@H](Oc1cccc(Cn2c(C)c(C(=O)c3ccc(Cl)cc3)c3ccc(OC(F)(F)F)cc32)c1)C(=O)O	7%
Cc1c(C(=O)c2ccc(Cl)cc2)c2ccc(OC(F)(F)F)cc2n1Cc1cccc(O[C@H](C)C(=O)O)c1	90%
CCC[C@@H](Oc1cccc(Cn2c(C)c(C(=O)c3ccc(Cl)cc3)c3ccc(OC(F)(F)F)cc32)c1)C(=O)O	80%

Same assay, conditions: 10 mg/kg

Structure (SMILES)	Activity
CC[C@@](C)(Oc1cccc(Cn2c(C)c(C(=O)c3ccc(Cl)cc3)c3ccc(OC(F)(F)F)cc32)c1)C(=O)O (stereo in doubt; 12j)	3%
CC[C@@](C)(Oc1cccc(Cn2c(C)c(C(=O)c3ccc(Cl)cc3)c3ccc(OC(F)(F)F)cc32)c1)C(=O)O (stereo in doubt; 12i)	51%

Molecular target: T3, Peroxisome proliferator-activated receptor gamma (Homo sapiens, UniProt P37231)
T3 sequence (P37231 whole entry): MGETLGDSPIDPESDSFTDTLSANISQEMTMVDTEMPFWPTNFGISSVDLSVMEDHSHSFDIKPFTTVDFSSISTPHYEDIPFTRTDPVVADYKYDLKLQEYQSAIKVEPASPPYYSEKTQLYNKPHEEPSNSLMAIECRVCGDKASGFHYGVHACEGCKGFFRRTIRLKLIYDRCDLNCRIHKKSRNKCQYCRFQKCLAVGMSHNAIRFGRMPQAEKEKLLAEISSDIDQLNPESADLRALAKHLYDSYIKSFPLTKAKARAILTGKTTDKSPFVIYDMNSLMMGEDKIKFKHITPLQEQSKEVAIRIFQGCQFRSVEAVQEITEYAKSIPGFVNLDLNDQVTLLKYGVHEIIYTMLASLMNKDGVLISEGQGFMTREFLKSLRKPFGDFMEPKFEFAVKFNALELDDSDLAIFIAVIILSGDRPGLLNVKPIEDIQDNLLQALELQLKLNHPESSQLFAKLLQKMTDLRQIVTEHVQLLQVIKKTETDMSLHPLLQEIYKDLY
Conditions: not given

Structure (SMILES)	IC50
Cc1c(Cc2cccc(OCC(=O)O)c2)c2cc(OC(F)(F)F)ccc2n1C(=O)c1ccc(Cl)cc1	1 nM
CC[C@H](Oc1cccc(Cn2c(C)c(C(=O)c3ccc(Cl)cc3)c3ccc(OC(F)(F)F)cc32)c1)C(=O)O	4 nM
Cc1c(C(=O)c2ccc(Cl)cc2)c2ccc(OC(F)(F)F)cc2n1Cc1cccc(OCC(=O)O)c1	2 nM
CC[C@@](C)(Oc1cccc(Cn2c(C)c(C(=O)c3ccc(Cl)cc3)c3ccc(OC(F)(F)F)cc32)c1)C(=O)O (stereo in doubt; 12j)	5 nM
CC[C@@](C)(Oc1cccc(Cn2c(C)c(C(=O)c3ccc(Cl)cc3)c3ccc(OC(F)(F)F)cc32)c1)C(=O)O (stereo in doubt; 12i)	9 nM
Cc1c(C(=O)c2ccc(Cl)cc2)c2ccc(OC(F)(F)F)cc2n1Cc1cccc(OC2(C(=O)O)CCC2)c1	16 nM
Cc1c(C(=O)c2ccc(Cl)cc2)c2ccc(OC(F)(F)F)cc2n1Cc1cccc(O[C@H](C)C(=O)O)c1	11 nM
CCC[C@@H](Oc1cccc(Cn2c(C)c(C(=O)c3ccc(Cl)cc3)c3ccc(OC(F)(F)F)cc32)c1)C(=O)O	12 nM

Molecular target: T3, Peroxisome proliferator-activated receptor gamma
Conditions: not given
Remark: another data set of the same source

Structure (SMILES)	EC50
Cc1c(Cc2cccc(OCC(=O)O)c2)c2cc(OC(F)(F)F)ccc2n1C(=O)c1ccc(Cl)cc1	3 nM
CC[C@H](Oc1cccc(Cn2c(C)c(C(=O)c3ccc(Cl)cc3)c3ccc(OC(F)(F)F)cc32)c1)C(=O)O	6 nM
Cc1c(C(=O)c2ccc(Cl)cc2)c2ccc(OC(F)(F)F)cc2n1Cc1cccc(OCC(=O)O)c1	2 nM
CC[C@@](C)(Oc1cccc(Cn2c(C)c(C(=O)c3ccc(Cl)cc3)c3ccc(OC(F)(F)F)cc32)c1)C(=O)O (stereo in doubt; 12j)	2 nM
Cc1c(C(=O)c2ccc(Cl)cc2)c2ccc(OC(F)(F)F)cc2n1Cc1cccc(OC2(C(=O)O)CCC2)c1	12 nM
Cc1c(C(=O)c2ccc(Cl)cc2)c2ccc(OC(F)(F)F)cc2n1Cc1cccc(O[C@H](C)C(=O)O)c1	4 nM
CCC[C@@H](Oc1cccc(Cn2c(C)c(C(=O)c3ccc(Cl)cc3)c3ccc(OC(F)(F)F)cc32)c1)C(=O)O	10 nM

Molecular target: T3, Peroxisome proliferator-activated receptor gamma
Conditions: cos-1
Description: Agonist activity at human PPARgamma receptor expressed in african green monkey COS1 cells co-transfected with fused yeast Gal4-DBD by transactivation assay

Structure (SMILES)	EC50
CC[C@@](C)(Oc1cccc(Cn2c(C)c(C(=O)c3ccc(Cl)cc3)c3ccc(OC(F)(F)F)cc32)c1)C(=O)O (stereo in doubt; 12i)	2 nM
